Measurements taken from publication PMC5298035 (Clinical Pharmacology in Drug Development, 2016).
Read-outs that look alike come from different tables or passages of the source.

What was measured:
[1] = assay type: in vivo, human
[2] = target: T1, CYP3A4 (Homo sapiens, UniProt P08684); assay: Clinical CYP3A4 drug-drug interaction classification; assay type: in vivo
[3] = test system: CYP2C8; details: cultured human hepatocytes; ref data on file; cited from earlier work
[4] = test system: CYP3A7; details: CYP3A7-expressing human liver microsomes; ref data on file; cited from earlier work
[5] = Phase 1 rifampin interaction study: plasma PK of isavuconazole; assay type: in vivo, human
[6] = test system: CYP2C8; details: CYP2C8-expressing human liver microsomes; ref data on file; cited from earlier work
[7] = cited from earlier work
[8] = assay type: in vivo, human; remark: listed apart in the source
[9] = test system: CYP2C9; details: in vitro; ref unpublished data; cited from earlier work
[10] = active drug released from prodrug; cited from earlier work
[11] = test system: CYP2B6; details: in vitro; ref unpublished data; cited from earlier work
[12] = test system: P-glycoprotein; details: in vitro; ref unpublished data; cited from earlier work
[13] = test system: CYP2C19; details: pooled human liver microsomes; ref data on file; cited from earlier work
[14] = Safety; assay type: in vivo, human; details: ethinyl estradiol/norethindrone study, by treatment period
[15] = test system: CYP1A2; details: pooled human liver microsomes; ref data on file; cited from earlier work
[16] = test system: CYP3A5; details: CYP3A5-expressing human liver microsomes; ref data on file; cited from earlier work
[17] = coadministration with lopinavir/ritonavir; cited from earlier work
[18] = test system: CYP2E1; details: pooled human liver microsomes; ref data on file; cited from earlier work
[19] = test system: CYP2A6; details: pooled human liver microsomes; ref data on file; cited from earlier work
[20] = test system: CYP2B6; details: cultured human hepatocytes; ref data on file; cited from earlier work
[21] = test system: CYP1A2; details: cultured human hepatocytes; ref data on file; cited from earlier work
[22] = test system: CYP2B6; details: CYP2B6-expressing human liver microsomes; ref data on file; cited from earlier work
[23] = active drug released from prodrug; cited from earlier work; remark: listed apart in the source
[24] = test system: CYP4A11; details: pooled human liver microsomes; ref data on file; cited from earlier work
[25] = target: T1, CYP3A4; details: cultured human hepatocytes; ref data on file; cited from earlier work
[26] = target: T1, CYP3A4; details: CYP3A4-expressing human liver microsomes; ref data on file; cited from earlier work
[27] = Safety; assay type: in vivo, human; details: ketoconazole study, by treatment period
[28] = test system: CYP2D6; details: pooled human liver microsomes; ref data on file; cited from earlier work
[29] = test system: CYP2C9; details: cultured human hepatocytes; ref data on file; cited from earlier work
[30] = test system: CYP2C19; details: cultured human hepatocytes; ref data on file; cited from earlier work
[31] = Safety; assay type: in vivo, human; details: rifampin study, by treatment period
[32] = test system: CYP2C9; details: pooled human liver microsomes; ref data on file; cited from earlier work
[33] = Phase 1 ethinyl estradiol/norethindrone interaction study: plasma PK; assay type: in vivo, human; details: for AUCτ: n = 23, arithmetic mean (SD)
[34] = Safety; assay type: in vivo, human; details: midazolam study, by treatment period
[35] = test system: CYP3A4; details: cited from earlier work
[36] = test system: CYP3A4; details: cited from earlier work; remark: listed apart in the source
[37] = both, human, plasma, po, 200 mg
[38] = isavuconazole + ketoconazole vs isavuconazole alone, (90% CI)
[39] = presence vs absence of ketoconazole 200 mg BID
[40] = coadministration with rifampin 600 mg QD vs isavuconazole alone
[41] = isavuconazole + rifampin vs isavuconazole alone, (90% CI)

T1 sequence (P08684 whole entry): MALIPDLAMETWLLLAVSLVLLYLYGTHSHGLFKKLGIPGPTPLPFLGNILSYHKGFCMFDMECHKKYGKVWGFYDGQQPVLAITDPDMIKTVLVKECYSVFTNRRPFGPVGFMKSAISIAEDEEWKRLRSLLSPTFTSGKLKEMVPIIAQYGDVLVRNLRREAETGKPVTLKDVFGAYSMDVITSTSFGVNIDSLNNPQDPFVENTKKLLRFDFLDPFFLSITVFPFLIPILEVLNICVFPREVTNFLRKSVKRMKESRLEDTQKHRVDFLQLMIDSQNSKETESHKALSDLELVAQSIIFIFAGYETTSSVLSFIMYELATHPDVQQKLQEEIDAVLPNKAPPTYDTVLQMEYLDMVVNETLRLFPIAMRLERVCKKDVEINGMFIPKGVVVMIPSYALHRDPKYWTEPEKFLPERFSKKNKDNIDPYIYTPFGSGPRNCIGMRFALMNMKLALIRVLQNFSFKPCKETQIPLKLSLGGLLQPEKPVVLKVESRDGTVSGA

## C[C@@H](c1nc(-c2ccc(C#N)cc2)cs1)[C@](O)(Cn1cncn1)c1cc(F)ccc1F [Isavuconazole, isavuconazole]
[1]; [37]
  AUC(0-inf): 84800 ng·h/mL
  AUC(0-t): 64900 ng·h/mL
  Cmax: 2200 ng/mL
  Tmax: 2 h
  half-life: 117 h
[1]; isavuconazole 200 mg single oral dose alone, n = 12, arithmetic mean (SD)
  CL/F: 2.5 (0.6) L/h
[1]; [38]
  Geometric least-squares mean ratio, AUC0-∞: 522 (409, 666) %
  Geometric least-squares mean ratio, AUClast: 373 (319, 435) %
  Geometric least-squares mean ratio, Cmax: 109 (93, 127) %
[1]; [39]
  increase in mean AUC0-∞: 422%
  increase in mean AUClast: 273%
  increase in mean Cmax: 9%
[2]; from midazolam coadministration in healthy adults, in vivo
  classification as inhibitor of CYP3A4: moderate inhibitor
[2]; from rifampin and ketoconazole coadministration in healthy adults
  classification as substrate of CYP3A4: sensitive substrate
[3]
  maximum increase in CYP2C8 mRNA: 4.3 fold
  maximum increase in amodiaquine N-dealkylase activity (CYP2C8): 2.6 fold
[4]
  ratio of the remaining isavuconazole: > 98%
[5]; [40]
  decrease in mean AUC0-∞: 97%
  decrease in mean AUClast: 97%
  decrease in mean AUCτ: 90%
  decrease in mean Cmax: 75%
[5]; [41]
  Geometric least-squares mean ratio, AUC0-∞: 3 (2, 3) %
  Geometric least-squares mean ratio, AUClast: 3 (3, 3) %
  Geometric least-squares mean ratio, AUCτ: 10 (9, 11) %
  Geometric least-squares mean ratio, Cmax: 25 (23, 27) %
[5]; male, human, plasma, po
  Tmax: 2 h
[6]
  ratio of the remaining isavuconazole: > 98%
[7]
  Oral bioavailability: 98%
  food or pH effect on absorption: no evidence of a clinically relevant food or pH effect
[8]; both, human, plasma, oral, 200 mg
  Cmax: 5200 ng/mL
[8]; isavuconazole 200 mg QD
  mean AUCτ in the presence vs absence of midazolam (in words): comparable
  mean Cmax in the presence vs absence of midazolam (in words): comparable
[9]
  substrate of CYP2C9: not a substrate
[10]
  solubility (in words): poorly soluble
[11]
  substrate of CYP2B6: not a substrate
[12]
  substrate of P-glycoprotein: not a substrate
[13]
  correlation of isavuconazole metabolism with CYP2C19 activity: No correlations
[14]
  subjects who experienced TEAEs: 6 n
  subjects with drug-related TEAEs: 3 subjects
[15]
  correlation of isavuconazole metabolism with CYP1A2 activity: No correlations
[16]
  ratio of the remaining isavuconazole: 68.4%
[17]
  increase in isavuconazole exposure: approximately 2 fold
[18]
  correlation of isavuconazole metabolism with CYP2E1 activity: No correlations
[19]
  correlation of isavuconazole metabolism with CYP2A6 activity: No correlations
[20]
  maximum increase in CYP2B6 mRNA: 11.4 fold
  maximum increase in bupropion hydroxylase activity (CYP2B6): 13.4 fold
[21]
  maximum increase in CYP1A2 mRNA: 5.4 fold
  maximum increase in phenacetin O-dealkylase activity (CYP1A2): 2.8 fold
[22]
  ratio of the remaining isavuconazole: > 98%
[23]
  permeability (in words): highly permeable
[24]
  correlation of isavuconazole metabolism with CYP4A11 activity: No correlations
[25]
  increase in CYP3A4 mRNA: ≤ 6.4 fold
  increase in testosterone hydroxylation activity (CYP3A4): up to 3.4 fold
[26]
  ratio of the remaining isavuconazole: 33.8%
[27]
  subjects reporting TEAEs: 2 (16.7%) subjects
[28]
  correlation of isavuconazole metabolism with CYP2D6 activity: No correlations
[29]
  maximum increase in CYP2C9 mRNA: 3.1 fold
  maximum increase in diclofenac 4'-hydroxylase activity (CYP2C9): none
[30]
  increase in CYP2C19 mRNA levels: No isavuconazole‐induced increases
  increase in S-(+)-mephenytoin 4'-hydroxylation activity (CYP2C19): No isavuconazole‐induced increases
[31]
  subjects who experienced TEAEs: 19 n
  subjects with drug-related TEAEs: 17 n
[32]
  correlation of isavuconazole metabolism with CYP2C9 activity: No correlations
[33]; female, human, plasma, oral, 200 mg
  Cmax: 5800 ng/mL
[33]; isavuconazole 200 mg QD + ethinyl estradiol 35 μg/norethindrone 1 mg, day 13
  AUCτ: 81.4 (19.0) h·μg/mL
[33]; isavuconazole 200 mg QD alone, day 12
  AUCτ: 80.8 (18.7) h·μg/mL
[34]
  subjects who experienced TEAEs: 10 n
  subjects with drug-related TEAEs: 5 n

## C[C@@H](c1ncncc1F)[C@](O)(Cn1cncn1)c1ccc(F)cc1F [voriconazole]
[35]
  increases in ethinyl estradiol and norethindrone on coadministration: less than 2 fold
[36]
  increase in midazolam AUC on coadministration: approximately 10 fold
